# According to patent US8492349B2, “Analgesia with minimal tolerance and dependence by a mu opioid receptor agonist that also binds filamin A” (Pain Therapeutics, Inc., priority 2007, dated 2013):
# Like-named read-outs stand apart in the source and are kept apart here.
# Key:
# MOR = test: Stimulation of MOR screen; type: biochemical
# Excerpt: In that Table, the log P value is the logarithm of a compound's partition coefficient between n-octanol and water [log(coctanol/cwater)], and is a well established measure of the compound's […]. “C Log P” shown in the Table is a calculated Log P value that is obtained using a program copyrighted (1988-2008) by Pomona College and BioByte, Inc. of Claremont, Calif.
# [1] = tested on: other Go-coupled receptors; test: Stimulation of other Go-coupled receptors; type: biochemical; conditions: 0.1 μM screen
# FLNA = FLNA (Homo sapiens, UniProt P21333); test: FLNA binding affinity screen
# pS133-CREB = test: Acute morphine-induced CREB S133 phosphorylation in organotypic striatal slice cultures; type: cell-based, rat; conditions: for pS133CREB detection, treatment alone: without morphine; for pS133CREB level in striatal tissue: 100 μM
# Description: CREB in the solubilized cytosol and nucleus was immunoprecipitated with an anti-CREB antibody (Santa Cruz) and the level of pS^133-CREB was then determined by Western blotting using a specific antibody directed against pS^133-CREB (Santa Cruz).
# purified human FLNA = target: T1, purified human FLNA (Homo sapiens, UniProt P21333); test: [3H]NLX binding to immunopurified FLNA; conditions: for attenuation of [3H]NLX binding to purified human FLNA: 10 μM peptide, 500 pM [3H]NLX
# T1 construct: made in house
# Description: (§1) To determine the NLX binding site on FLNA, various overlapping peptides encoding the c-terminal section of FLNA were used to compete for [^3H]NLX binding to FLNA using either A7 cell membranes or purified FLNA from A7 or SK-N-MC cells. Peptides were prepared by Sigma-Genosys (The Woodlands, Tex.). The reaction mixture consisted of 100 μg A7 membranes or 2 μg purified FLNA, 500 pM [^3H]NLX, and 10 μM of either FLNA2550-2560, FLNA2556-2565, FLNA2561-2570, FLNA2566-2575 or FLNA2576-2581 in 500 μl binding medium. The reaction was carried out at 37° C. for 30 minutes and terminated by rapid filtration through GF/B membranes under vacuum. The filters were washed twice with 5 ml ice-cold binding medium, and [^3H]NLX retained on the filters was measured by liquid, scintillation spectrometry.
# MOR-Gs coupling [2] = test: Acute morphine-induced MOR Go-to-Gs coupling switch in organotypic striatal slice cultures; type: cell-based, rat; conditions: for effect on acute morphine-induced coupling switch by MOR: pre-treatment 10 μM peptide
# Description: Tissues were harvested 5, 15 or 60 minutes after the drug exposure by centrifugation. For determination of MOR-G protein coupling, slices were homogenated to generate synaptic membranes and cytosolic fractions. Synaptic membranes (400 μg) were then solubilized with 0.5% digitonin/0.2% sodium cholate/0.5% NP-40 in 250 μl of immunoprecipitation buffer (25 mM HEPES, pH 7.5; 200 mM NaCl, 1 mM EDTA, 50 μg/ml leupeptin, 10 μg/ml aprotinin, 2 μg/ml soybean trypsin inhibitor, 0.04 mM PMSF and mixture of protein phosphatase inhibitors). Following centrifugation, striatal membrane lysates were immunoprecipitated with immobilized anti-Gαs/olf or -Gαo (Santa Cruz) conjugated with immobilized protein A-agarose beads (Pierce-Endogen). The level of MOR in anti-Gαs/olf or -Gαo immunoprecipitates was determined by Western blotting using specific anti-MOR antibodies.
# [3] = target: T2, FLNA in A7 cell membranes (Homo sapiens, UniProt P21333); test: [3H]NLX binding to membranes from FLNA-expressing A7 cells (competition); conditions: for displacement of [3H]NLX binding to A7 membranes: FIG. 3a; for attenuation of [3H]NLX binding to A7 cell membranes: 10 μM peptide, 500 pM [3H]NLX
# T2 construct: expressed in transfected cells; host or cells: A7, a subclone of human melanoma M2, stably transfected with human FLNA cDNA; membranes
# Description: To confirm FLNA as the high-affinity target of NLX, [^3H]NLX binding to the human melanoma cell line M2 and its subclone A7 was assessed. The M2 subclone lacks FLNA and MOR and its subclone A7 is stably transfected with human FLNA cDNA (obtained from Drs. Stossel and Ohta at Harvard Medical School).
# Membranes prepared from A7 cells (50 μg) were incubated in binding medium consisting of 50 mM Tris HCl, pH 7.5; 100 mM NaCl; and protease and protein phosphatase inhibitors with 500 pM [^3H]NLX for 30 minutes at 37° C. Total incubation volume was 500 μl. Non-specific binding was defined by 1 μM NTX. […] Reactions were terminated by, rapid filtration through GF/B membranes under vacuum. The filters were washed twice with 5 ml ice-cold binding medium, and [^3H]NLX retained on the filters was measured by liquid scintillation spectrometry.
# as §1
# To determine the essential amino acid residue(s) within the NLX-interacting pentapeptide, four additional pentapeptides, each with one amino acid residue replaced by alanine, were used along with the correct FLNA2561-2565 pentapeptide to compete for [^3H]NLX binding to FLNA using 100 μg A7 cell membranes. Peptides were generated by Sigma-Genosys. The reaction mixture consisted of 500 pM [^3H]NLX, 100 μg A7 membranes, and 10 μM pentapeptide [AAKGL, (SEQ ID NO:13); VAKGL (SEQ ID NO:14); VAAGL (SEQ ID NO:12); VAKAL (SEQ ID NO:15) or VAKGA (SEQ ID NO:16)] in 500 μl binding medium. The reaction was conducted at 37° C. for 30 minutes and terminated by rapid filtration through GF/B membranes under reduced pressure. The filters were washed twice with 5 ml ice-cold binding medium, and [^3H]NLX retained on the filters was measured by liquid scintillation spectrometry.
# [4] = cited from earlier work
# MOR-Gs coupling [5] = test: Chronic morphine-induced MOR Go-to-Gs coupling switch in organotypic striatal slice cultures; type: cell-based, rat; conditions: for effect on NLX-mediated prevention of cellular indices of morphine tolerance (Go-to-Gs switch and cAMP): 10 μM peptide added to morphine plus 10 pM NLX
# Description: For determination of MOR-G protein coupling, slices were homogenated to generate synaptic membranes. […] Following centrifugation, striatal membrane lysates were immunoprecipitated with immobilized anti-Gαs/olf or -Gαo conjugated with immobilized protein G-agarose beads. The level of MOR in anti-Gαs/olf or -Gαo immunoprecipitates was determined by Western blotting using specific anti-MOR antibodies.
# [6] = co-treatment 100 pM with 100 μM morphine
# [7] = pre-treatment 10 μM peptide, 100 μM morphine
# Description for cAMP accumulation: Tissues were homogenized by sonication and protein precipitated with 1M TCA. The supernatant obtained after centrifugation was neutralized using 50 mM Tris, pH 9.0. The level of cAMP in the brain lysate was measured by a cAMP assay kit (PerkinElmer Life Science, Boston) according to manufacturer's instructions.
# Sequence of FLNA (P21333 whole entry): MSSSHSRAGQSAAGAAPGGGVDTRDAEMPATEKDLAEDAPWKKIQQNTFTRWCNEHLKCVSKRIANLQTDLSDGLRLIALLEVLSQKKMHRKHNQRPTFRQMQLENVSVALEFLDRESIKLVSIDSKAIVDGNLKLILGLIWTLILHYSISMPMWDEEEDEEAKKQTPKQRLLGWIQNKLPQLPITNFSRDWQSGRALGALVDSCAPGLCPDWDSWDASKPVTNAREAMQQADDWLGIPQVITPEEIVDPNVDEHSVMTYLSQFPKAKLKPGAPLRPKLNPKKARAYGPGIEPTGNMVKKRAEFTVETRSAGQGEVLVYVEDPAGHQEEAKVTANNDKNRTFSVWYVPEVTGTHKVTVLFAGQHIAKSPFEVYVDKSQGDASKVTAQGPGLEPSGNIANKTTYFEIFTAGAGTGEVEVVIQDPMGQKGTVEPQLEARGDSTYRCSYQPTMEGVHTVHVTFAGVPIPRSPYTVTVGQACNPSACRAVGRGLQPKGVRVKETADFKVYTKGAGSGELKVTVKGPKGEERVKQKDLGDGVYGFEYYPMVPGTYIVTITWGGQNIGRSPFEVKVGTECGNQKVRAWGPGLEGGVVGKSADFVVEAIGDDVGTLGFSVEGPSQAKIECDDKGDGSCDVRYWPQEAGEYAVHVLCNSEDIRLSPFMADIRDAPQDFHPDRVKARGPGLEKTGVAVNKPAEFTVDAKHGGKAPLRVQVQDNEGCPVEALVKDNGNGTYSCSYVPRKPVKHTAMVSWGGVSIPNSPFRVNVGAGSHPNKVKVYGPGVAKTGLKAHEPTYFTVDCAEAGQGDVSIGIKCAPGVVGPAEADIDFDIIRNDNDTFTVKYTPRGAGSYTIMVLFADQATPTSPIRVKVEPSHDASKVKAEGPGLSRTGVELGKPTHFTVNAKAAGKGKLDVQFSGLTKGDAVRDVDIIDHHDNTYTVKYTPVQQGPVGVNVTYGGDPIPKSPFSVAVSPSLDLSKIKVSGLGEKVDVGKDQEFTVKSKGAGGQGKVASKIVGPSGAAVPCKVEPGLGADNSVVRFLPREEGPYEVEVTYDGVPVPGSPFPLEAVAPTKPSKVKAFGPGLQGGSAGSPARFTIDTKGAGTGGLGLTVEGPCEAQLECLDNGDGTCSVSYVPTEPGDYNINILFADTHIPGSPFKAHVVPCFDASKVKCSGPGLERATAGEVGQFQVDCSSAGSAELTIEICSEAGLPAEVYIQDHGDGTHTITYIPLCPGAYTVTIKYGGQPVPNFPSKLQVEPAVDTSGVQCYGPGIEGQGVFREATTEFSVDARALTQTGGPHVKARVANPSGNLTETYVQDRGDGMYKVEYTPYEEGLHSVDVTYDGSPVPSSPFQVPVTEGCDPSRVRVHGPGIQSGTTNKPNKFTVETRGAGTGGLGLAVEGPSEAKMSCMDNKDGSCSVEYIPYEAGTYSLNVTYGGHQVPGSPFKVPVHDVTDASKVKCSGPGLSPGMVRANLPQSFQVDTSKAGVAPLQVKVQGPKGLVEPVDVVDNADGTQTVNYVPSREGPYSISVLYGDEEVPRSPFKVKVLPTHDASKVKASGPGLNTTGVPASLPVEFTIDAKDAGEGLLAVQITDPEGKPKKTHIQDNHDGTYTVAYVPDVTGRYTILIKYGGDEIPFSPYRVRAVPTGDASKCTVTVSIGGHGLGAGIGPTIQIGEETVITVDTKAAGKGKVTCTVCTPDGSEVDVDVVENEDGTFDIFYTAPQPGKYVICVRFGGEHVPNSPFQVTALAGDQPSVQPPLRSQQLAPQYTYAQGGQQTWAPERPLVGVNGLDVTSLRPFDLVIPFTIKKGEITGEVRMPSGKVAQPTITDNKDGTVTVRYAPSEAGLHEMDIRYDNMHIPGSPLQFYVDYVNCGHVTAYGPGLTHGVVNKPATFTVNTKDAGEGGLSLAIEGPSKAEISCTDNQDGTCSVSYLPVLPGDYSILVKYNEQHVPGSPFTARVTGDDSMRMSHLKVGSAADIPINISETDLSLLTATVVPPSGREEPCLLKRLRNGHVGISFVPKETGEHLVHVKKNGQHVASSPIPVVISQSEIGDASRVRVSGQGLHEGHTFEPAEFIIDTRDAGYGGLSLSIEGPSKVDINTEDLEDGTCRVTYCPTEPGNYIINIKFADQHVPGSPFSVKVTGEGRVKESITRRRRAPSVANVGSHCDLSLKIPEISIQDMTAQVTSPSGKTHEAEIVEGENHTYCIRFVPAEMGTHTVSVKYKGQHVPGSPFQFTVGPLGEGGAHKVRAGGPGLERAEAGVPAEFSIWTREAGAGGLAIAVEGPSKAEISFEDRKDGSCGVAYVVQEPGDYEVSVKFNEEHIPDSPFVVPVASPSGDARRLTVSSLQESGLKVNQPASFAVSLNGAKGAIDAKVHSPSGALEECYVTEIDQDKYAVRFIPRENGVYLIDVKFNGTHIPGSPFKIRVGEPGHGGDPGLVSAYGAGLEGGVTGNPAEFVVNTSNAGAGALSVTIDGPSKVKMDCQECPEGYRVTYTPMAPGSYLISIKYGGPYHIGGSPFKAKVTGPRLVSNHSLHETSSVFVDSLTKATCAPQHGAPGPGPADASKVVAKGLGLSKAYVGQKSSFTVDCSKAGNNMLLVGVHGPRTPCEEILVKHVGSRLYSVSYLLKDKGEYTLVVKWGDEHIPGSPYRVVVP
# T2 sequence (P21333 whole entry): as above
# T1 sequence (P21333 whole entry): as above
molecule,measurement,setting,value
COC(OC)C12CCC(=O)C=C1CCC1C3CCC(OC(C)=O)C3(C)CCC12 (stereo not shown) [Compound 1],Stimulation of MOR at (at 0.1 μM),MOR,79%
same,Stimulation of other Go-coupled receptors,[1],19%
C[C@@H]1CCC2[C@]3(C)COC(C)(C)OC3CC[C@@]2(C)C12CCC(CO)(CCO)O2 (stereo partly shown) [Compound 2],Stimulation of MOR at (at 0.1 μM),MOR,67%
same,Stimulation of other Go-coupled receptors,[1],11%
COc1cc(CCC(O)CC2c3c(cc4c(c3OC)OCO4)CCN2C)ccc1O (stereo not shown) [Compound 3],Stimulation of MOR at (at 0.1 μM),MOR,78%
same,Stimulation of other Go-coupled receptors,[1],16%
COc1ccc(S(=O)(=O)N2CCC3(CC2)OCCN3S(=O)(=O)c2ccc(OC)cc2)cc1 [Compound 5],Kd,FLNA; read-out: FLNA affinity,8.65 pM
same,Stimulation of MOR at (at 0.1 μM),MOR,91%
same,Stimulation of other Go-coupled receptors,[1],11%
COc1ccccc1CC(=O)CC1c2c(cc3c(c2OC)OCO3)CC[N+]1(C)C (stereo not shown) [Compound 6],Stimulation of MOR at (at 0.1 μM),MOR,91%
same,Stimulation of other Go-coupled receptors,[1],23%
COc1ccc(C(=O)CC2c3c(cc4c(c3OC)OCO4)CC[N+]2(C)C)c(OC)c1 (stereo not shown) [Compound 7],Kd,FLNA; read-out: FLNA affinity,2.86 pM
same,Stimulation of MOR at (at 0.1 μM),MOR,64%
same,Stimulation of other Go-coupled receptors,[1],21%
C[C@@H](NC(=O)[C@@H](N)Cc1ccc(O)cc1)C(=O)NCC(=O)N(C)[C@@H](Cc1ccccc1)C(=O)NCCO [DAMGO],Stimulation of MOR at (at 0.1 μM),MOR,92%
same,Stimulation of other Go-coupled receptors,[1],6%
"C=CCN1CC[C@]23c4c5ccc(O)c4O[C@H]2C(=O)CC[C@@]3(O)[C@H]1C5 [Naloxone, naloxone]",effect on acute morphine-induced pS133CREB signal,pS133-CREB; [6],virtually abolished
same,"pS133CREB detection, treatment alone",pS133-CREB,did not result in pS^133CREB detection
same,Kd,purified human FLNA; read-out: binding affinity for immunopurified FLNA,~43 pM
same,effect on chronic morphine-induced attenuation of the DAMGO-induced reduction in cAMP production,cAMP accumulation; 10 pM with 100 μM morphine,blocked
"O=C1CC[C@@]2(O)[C@H]3Cc4ccc(O)c5c4[C@@]2(CCN3CC2CC2)[C@H]1O5 [Naltrexone, naltrexone]",effect on acute morphine-induced G protein coupling switch by MOR,MOR-Gs coupling [2]; [6],prevented
same,effect on MOR coupling alone,MOR-Gs coupling [2]; without morphine,had no effect
same,Kd,FLNA,3.9 pM
same,effect on acute morphine-induced pS133CREB signal,pS133-CREB; [6],virtually abolished
same,"pS133CREB detection, treatment alone",pS133-CREB,did not result in pS^133CREB detection
same,displacement of [3H]NLX binding to A7 membranes,[3],robustly displaced
same,IC50,"[3]; competition curve, 16 concentrations 0.2 pM to 1 μM, FIG. 4, read-out: IC50 for inhibition of [3H]NLX binding to membranes from FLNA-expressing A7 cells",43 pM
same,effect on acute rewarding effects of oxycodone,[4]; 3 ng/kg,without effect
same,effect on acute rewarding effects of oxycodone,"[4]; 0.03, 0.3 and 30 ng/kg",blocked
CN1CC[C@]23c4c5ccc(O)c4O[C@H]2[C@@H](O)C=C[C@H]3[C@H]1C5 [morphine],pS133CREB level in striatal tissue,pS133-CREB; after 5 and 15 minutes of exposure,robust level
same,pS133CREB level in striatal tissue,pS133-CREB; after 1 hour of exposure,only a residual level
same,displacement of [3H]NLX binding to A7 membranes,[3],not
same,Go-to-Gs coupling switch by MOR after chronic treatment,"MOR-Gs coupling [5]; 100 μM, 1 hour twice daily for 7 days",induced a robust Go-to-Gs coupling switch
same,effect on DAMGO-mediated reduction in cAMP accumulation,cAMP accumulation; chronic 100 μM treatment,attenuated
"FLNA2550-2560: overlapping peptide encoding the c-terminal section of FLNA (PGPGPADASKV; UniProt P21333 2550-2560, looked up, fragment)",effect on NLX-mediated prevention of cellular indices of morphine tolerance (Go-to-Gs switch and cAMP),MOR-Gs coupling [5],not
"FLNA2556-2565: overlapping peptide encoding the c-terminal section of FLNA (DASKVVAKGL; UniProt P21333 2556-2565, looked up, fragment)",attenuation of [3H]NLX binding to A7 cell membranes,[3],markedly attenuated
same,attenuation of [3H]NLX binding to purified human FLNA,purified human FLNA,markedly attenuated
"FLNA2561-2570: overlapping peptide encoding the c-terminal section of FLNA (VAKGLGLSKA; UniProt P21333 2561-2570, looked up, fragment)",attenuation of [3H]NLX binding to A7 cell membranes,[3],markedly attenuated
same,effect on NLX-mediated prevention of cellular indices of morphine tolerance (Go-to-Gs switch and cAMP),MOR-Gs coupling [5],abolished
same,attenuation of [3H]NLX binding to purified human FLNA,purified human FLNA,markedly attenuated
"FLNA2566-2575: overlapping peptide encoding the c-terminal section of FLNA (GLSKAYVGQK; UniProt P21333 2566-2575, looked up, fragment)",effect on NLX-mediated prevention of cellular indices of morphine tolerance (Go-to-Gs switch and cAMP),MOR-Gs coupling [5],not
"VAAGL (SEQ ID NO:12) [control peptide, FLNA2561-2565 withone mid-point alanine substitution]",Go coupling at 15 minutes,"MOR-Gs coupling [2]; 10 μM peptide, 100 μM morphine, 15 minutes",mildly preserved
same,effect on acute morphine-induced coupling switch by MOR,MOR-Gs coupling [2]; 100 μM morphine,did not prevent
same,effect on acute morphine-induced pS133CREB signal,pS133-CREB; [7],did not significantly diminish
VAKGL (SEQ ID NO:14) [decoy pentapeptide],effect on acute morphine-induced coupling switch by MOR,MOR-Gs coupling [2]; 100 μM morphine,completely prevented
same,effect on acute morphine-induced pS133CREB signal,pS133-CREB; [7],virtually abolished
